Experimental data taken from patent US20080051350A1, “Therapeutic Use for a Group of Sulphated Polysaccharides” (Bioiberica, S.A., priority 2004, published 2008).
Marks after values point to notes of the source that are not given here.

How the values were obtained:
Assay type in all cases: cell-based
[1] = tested on: rat chondrosarcoma cell line called LTC; assay: Inhibition of aggrecan degradation induced by IL-1α (Western Blot, anti-aggrecan antibody G1 / NITGE); conditions: 100 μg/mL, in the presence or not of IL-1α (10 ng/mL), 4 days, FIG. 1
Method: The assays were performed on chondrocyte cultures from a rat chondrosarcoma cell line called LTC.
The LTC cells were kept in a monolayer culture in a Gibco DMEM medium (Dulbecco's Modification of Eagle's Medium) (containing 4.5 g/L of glucose) supplemented with sodium bicarbonate (3.7 g/L), glutamine (2 mM), ascorbic acid (50 mg/L), gentamicin (50 mg/L), and bovine fetal serum Hyalone (10%), at pH 7.4.
The confluent LTC cell cultures were trypsinised and 40,000 cells per 0.5 mL of culture were seeded in 48-well plates. They were maintained for 5 days, during which time they deposited 15-30 μg of glycosaminoglycans (GAG) in each well.
The medium was separated, the cell membranes were washed by adding 5×1 mL of a catabolic medium {DMEM+4.5 g/L glucose supplemented with sodium bicarbonate (3.7 g/L), glutamine (2 mM), and 10 ng/mL of IL-1α (interleukin-1α) at pH 7.4). […]
For the Western Blot, 20 μL of 50 mM tris-acetate at pH 7.3 were added to each well. […] 25 μL-fractions of the supernatant were separated by electrophoresis (gel gradient 8-12% SDS PAGE) and analysed by means of a Western Blot using anti-aggrecan antibody G1. […] The antiserum was used at a 1:5,000 dilution and the peroxidase-conjugated goat anti-(rabbit IgG) was detected by means of the Amersham ECL Kit.

[2] = tested on: Human articular chondrocytes; assay: Synthesis of extracellular aggrecans determined by incorporation of 35S in primary culture of human chondrocytes in agarose gel; conditions: for 35S incorporated into the aggrecans associated with the cells / 35S incorporated into the inter-territorial matrix's aggrecans / 35S incorporated into the re-synthesised aggrecans (total): 48 h
Method: Human articular chondrocytes were isolated following the methods described by W. T. Green Jr. (Clin. Orthop., 75, 248-260 (1971)) and K. E. Kuettner et al. (J. Cell. Biol., 93, 743-750 (1982)).
These chondrocytes were cultured in an agarose gel following the method described by P. D. Benya et al. (Cell, 30, 215-224, (1982)), and modified by G. Verbruggen et al. (Clin. Exp. Rheumatol., 8, 371-378 (1990)) and by M. Cornelissen et al. (J. Tiss. Cult. Meth., 15, 139-146 (1993)).
The synthesis of aggrecans was determined by the incorporation of ^35S, using labelled sodium sulphate Na2^35SO4 as radioactive precursor. After two weeks of culture, 10 μCi/mL of radio-labelled precursor were introduced in the culture medium for 48 h, as was the compound to be assayed (inulin polysulphate in Chemical Example 1) at different concentrations (0.0, 0.1, 0.5, 1.0, 5.0 μg/mL).
The synthesised ^35S aggrecans once again partially accumulated in the intercellular agarose matrix or else were released in the incubation medium.
Once the incubation period ended, the agarose gel was mechanically broken down and subsequently digested by means of 3 mL of a 50 U/mL […] solution in a 0.067 M phosphate buffer, at pH 6.0, in the presence of proteinase inhibitors.
The suspension thus produced was centrifuged; the supernatant containing the inter-territorial matrix's ^35S aggrecans and the incubation medium containing the ^35S aggrecan metabolites released in the extracellular matrix were subsequently united by means of chromatography.
The residue, which contained the chondrocytes and the associated ^35S aggrecans, was treated for 48 hours with 1 mL of a 4.0 M guanidium chloride solution in a 0.05M acetate buffer at pH 5.8 containing the proteinase inhibitors.
The purpose of this operation is to extract the ^35S aggrecans associated with the cells. The solution produced was centrifuged in order to separate the cells from the supernatant, which was subsequently separated by means of chromatography. The chromatography operations for the different fractions produced were performed on Sephadex G25 gel in a phosphate buffer pH 6.8 containing 0.01 M of Na2SO4, in order to separate the ^35S aggrecans from the free Na2^35SO4.
The radioactivity of each of the macromolecular eluants produced was measured and related to the number of chondrocytes contained in the initial culture, expressed in pg of ^35SO4 incorporated into the aggrecans, per million chondrocytes per hour.

[3] = tested on: human articular chondrocytes treated with interleukin-1 (IL-1); assay: Aggrecans associated with IL-1-treated chondrocytes, measured by immunocytochemistry / flux cytometry; conditions: for Mean fluorescence intensity in the chondrocytes after labelling of aggrecan, M ± SD: one week of culture
Method: The human articular chondrocytes were isolated and cultured following the previously described methods.
The accumulation of aggrecans associated with the chondrocytes was measured, after a week of culture, by means of the immunocytochemistry technique described by L. Wang et al. (Osteoarthritis Cart., 9, 248-260 (2001)). The chondrocytes were treated with interleukin-1 (IL-1) in order to simulate a situation of inflammation and catabolism. The inulin polysulphate in Chemical Example 1 was added jointly with IL-1.
Once the incubation period ended, the chondrocytes were released from the agarose gel following the described method. The chondrocytes and the associated aggrecans were studied by means of flux cytometry using monoclonal antibodies specifically directed against the aggrecans' proteic part.

[4] = Donor F45, IL-1 + IPS 0.5 μg/mL
[5] = Donor F45, IL-1 + IPS 1.0 μg/mL
[6] = Donor F45, IL-1 + IPS 2.5 μg/mL
[7] = Donor M32, IL-1 + IPS 1.0 μg/mL
[8] = Donor M32, IL-1 + IPS 2.5 μg/mL
[9] = Donor M32, IL-1 + IPS 5.0 μg/mL

Inulin Polysulphate Sodium Salt [IPS]
Effect on aggrecan degradation (band of aggrecan fragments labelled with antibody NITGE G1) [1]: aggrecan degradation is inhibited | Concentration of optimum activity on aggrecan synthesis ([2]; 35S incorporation, concentrations 0.1-5.0 μg/mL tested): about 0.5 μg/mL | % Total: aggrecans associated with the cells with respect to the total quantity of aggrecans ([2]; IPS 0.1 μg/mL): 23.5% | % Total: inter-territorial matrix's aggrecans with respect to the total quantity of aggrecans ([2]; IPS 0.1 μg/mL): 66.2% | % Total: re-synthesised aggrecans with respect to the total quantity of aggrecans ([2]; IPS 0.1 μg/mL): 100% | % change with respect to the non-treated control, aggrecans associated with the cells ([2]; IPS 0.1 μg/mL): 15.1% | % change with respect to the non-treated control, re-synthesised aggrecans (total) ([2]; IPS 0.1 μg/mL): 2.9% | % change with respect to the untreated control, inter-territorial matrix's aggrecans ([2]; IPS 0.1 μg/mL): 1.4% | 35S incorporated into the aggrecans associated with the cells ([2]; IPS 0.1 μg/mL): 2,737 pg ^35S/10^6 cells/h | 35S incorporated into the inter-territorial matrix's aggrecans ([2]; IPS 0.1 μg/mL): 7,818 pg ^35S/10^6 cells/h | 35S incorporated into the re-synthesised aggrecans (total) ([2]; IPS 0.1 μg/mL): 11,756 pg ^35S/10^6 cells/h | % Total: aggrecans associated with the cells with respect to the total quantity of aggrecans ([2]; IPS 0.5 μg/mL): 18.4% | % Total: inter-territorial matrix's aggrecans with respect to the total quantity of aggrecans ([2]; IPS 0.5 μg/mL): 70.7% | % Total: re-synthesised aggrecans with respect to the total quantity of aggrecans ([2]; IPS 0.5 μg/mL): 100% | % change with respect to the non-treated control, aggrecans associated with the cells ([2]; IPS 0.5 μg/mL): 28.8* % | % change with respect to the non-treated control, re-synthesised aggrecans (total) ([2]; IPS 0.5 μg/mL): 51.5* % | % change with respect to the untreated control, inter-territorial matrix's aggrecans ([2]; IPS 0.5 μg/mL): 60.6% | 35S incorporated into the aggrecans associated with the cells ([2]; IPS 0.5 μg/mL): 3,064* pg ^35S/10^6 cells/h | 35S incorporated into the inter-territorial matrix's aggrecans ([2]; IPS 0.5 μg/mL): 12,383 pg ^35S/10^6 cells/h | 35S incorporated into the re-synthesised aggrecans (total) ([2]; IPS 0.5 μg/mL): 17,312* pg ^35S/10^6 cells/h | % Total: aggrecans associated with the cells with respect to the total quantity of aggrecans ([2]; IPS 1.0 μg/mL): 17.9% | % Total: inter-territorial matrix's aggrecans with respect to the total quantity of aggrecans ([2]; IPS 1.0 μg/mL): 70.7% | % Total: re-synthesised aggrecans with respect to the total quantity of aggrecans ([2]; IPS 1.0 μg/mL): 100% | % change with respect to the non-treated control, aggrecans associated with the cells ([2]; IPS 1.0 μg/mL): 11.9% | % change with respect to the non-treated control, re-synthesised aggrecans (total) ([2]; IPS 1.0 μg/mL): 33.7* % | % change with respect to the untreated control, inter-territorial matrix's aggrecans ([2]; IPS 1.0 μg/mL): 41.2* % | 35S incorporated into the aggrecans associated with the cells ([2]; IPS 1.0 μg/mL): 2,662 pg ^35S/10^6 cells/h | 35S incorporated into the inter-territorial matrix's aggrecans ([2]; IPS 1.0 μg/mL): 10,887* pg ^35S/10^6 cells/h | 35S incorporated into the re-synthesised aggrecans (total) ([2]; IPS 1.0 μg/mL): 15,281* pg ^35S/10^6 cells/h | % Total: aggrecans associated with the cells with respect to the total quantity of aggrecans ([2]; IPS 5.0 μg/mL): 17.4% | % Total: inter-territorial matrix's aggrecans with respect to the total quantity of aggrecans ([2]; IPS 5.0 μg/mL): 67.9% | % Total: re-synthesised aggrecans with respect to the total quantity of aggrecans ([2]; IPS 5.0 μg/mL): 100% | % change with respect to the non-treated control, aggrecans associated with the cells ([2]; IPS 5.0 μg/mL): 14.2% | % change with respect to the non-treated control, re-synthesised aggrecans (total) ([2]; IPS 5.0 μg/mL): 3.0% | % change with respect to the untreated control, inter-territorial matrix's aggrecans ([2]; IPS 5.0 μg/mL): 8.2% | 35S incorporated into the aggrecans associated with the cells ([2]; IPS 5.0 μg/mL): 2,041 pg ^35S/10^6 cells/h | 35S incorporated into the inter-territorial matrix's aggrecans ([2]; IPS 5.0 μg/mL): 8,340 pg ^35S/10^6 cells/h | 35S incorporated into the re-synthesised aggrecans (total) ([2]; IPS 5.0 μg/mL): 12,106 pg ^35S/10^6 cells/h | % Change with respect to the group treated with IL-1 (IL-1 = 100.0) [3, 4]: 112.7* % | Mean fluorescence intensity in the chondrocytes after labelling of aggrecan, M ± SD [3, 4]: 20.4 ± 0.2 | % Change with respect to the group treated with IL-1 (IL-1 = 100.0) [3, 5]: 147.0* % | Mean fluorescence intensity in the chondrocytes after labelling of aggrecan, M ± SD [3, 5]: 26.6 ± 0.1 | % Change with respect to the group treated with IL-1 (IL-1 = 100.0) [3, 6]: 215.5* % | Mean fluorescence intensity in the chondrocytes after labelling of aggrecan, M ± SD [3, 6]: 39.0 ± 0.2 | % Change with respect to the group treated with IL-1 (IL-1 = 100.0) [3, 7]: 116.2* % | Mean fluorescence intensity in the chondrocytes after labelling of aggrecan, M ± SD [3, 7]: 20.8 ± 1.2 | % Change with respect to the group treated with IL-1 (IL-1 = 100.0) [3, 8]: 120.7* % | Mean fluorescence intensity in the chondrocytes after labelling of aggrecan, M ± SD [3, 8]: 21.6 ± 1.1 | % Change with respect to the group treated with IL-1 (IL-1 = 100.0) [3, 9]: 139.7* % | Mean fluorescence intensity in the chondrocytes after labelling of aggrecan, M ± SD [3, 9]: 25.0 ± 1.4
